Laboratory results: patent US20140155376A1, “PYRROLOPYRAZINE KINASE INHIBITORS” (Hoffmann-La Roche Inc., priority 2010, published 2014)

Biological target: T1, JAK3 (recombinant human kinase domain; h-jak3(810-1124)) (Homo sapiens, UniProt P52333)
T1 construct: h-jak3(810- 1124)-sf9-c; made in house; host or cells: Sf9 insect cells
Assay: Determination of IC50 of Janus Kinase (JAK) inhibition: JAK3, radioactive end-point assay with 33P-ATP
Type: biochemical
Conditions: JAK3 kinase domain; ATP 1.5 uM, peptide 50 uM, 20 minutes, room temperature, 10% DMSO; read-out: Ic50 h-jak3(810-1124)-sf9-c:no additive

T1 sequence (P52333 810-1124): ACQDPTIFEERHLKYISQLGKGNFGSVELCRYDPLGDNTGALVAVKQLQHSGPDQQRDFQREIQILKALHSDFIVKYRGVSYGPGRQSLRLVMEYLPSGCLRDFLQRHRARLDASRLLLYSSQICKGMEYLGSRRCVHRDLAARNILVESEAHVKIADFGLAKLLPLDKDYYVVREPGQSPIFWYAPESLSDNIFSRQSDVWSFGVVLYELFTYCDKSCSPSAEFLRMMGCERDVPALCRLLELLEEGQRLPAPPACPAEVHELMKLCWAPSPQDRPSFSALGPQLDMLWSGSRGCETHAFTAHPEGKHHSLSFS

| IC50 [nM] | SMILES |
| --- | --- |
| 29.3 | CC(C)NC(=O)c1c[nH]c2ncc(Oc3ccc4cc[nH]c4c3)nc12 [Example I-272, 2-(1H-Indol-6-yloxy)-5H-pyrrolo[2,3-b]pyrazine-7-carboxylic acid isopropylamide] |
| 0.91 | C[C@H](NC(=O)c1c[nH]c2ncc(-c3ccc(C(=O)NC4CCOCC4)s3)nc12)C(C)(C)C#N [Example I-223, 2-[5-(Tetrahydro-pyran-4-ylcarbamoyl)-thiophen-2-yl]-5H-pyrrolo[2,3-b]pyrazine-7-carboxylic acid ((S)-2-cyano-1,2,2-trimethyl-ethyl)-amide] |
| 4590 | CCNC(=O)c1c[nH]c2ncc(Oc3cccc(C(C)C)c3)nc12 [Example I-250, 2-(3-Isopropyl-phenoxy)-5H-pyrrolo[2,3-b]pyrazine-7-carboxylic acid ethylamide] |
| 13.1 | C[C@H](NC(=O)c1c[nH]c2ncc(-c3cn(-c4cccc(C(F)(F)F)c4)cn3)nc12)C(C)(C)C [Example I-146, 2-[1-(3-Trifluoromethyl-phenyl)-1H-imidazol-4-yl]-5H-pyrrolo[2,3-b]pyrazine-7-carboxylic acid ((S)-1,2,2-trimethyl-propyl)-amide] |
| 46 | CC[C@@H](NC(=O)c1c[nH]c2ncc(C3CC3)nc12)C(C)(C)O [Example I-44, 2-Cyclopropyl-5H-pyrrolo[2,3-b]pyrazine-7-carboxylic acid ((R)-1-ethyl-2-hydroxy-2-methyl-propyl)-amide] |
| 1070 | CCNC(=O)c1c[nH]c2ncc(Oc3cccc(Cl)c3)nc12 [Example I-244, 2-(3-Chloro-phenoxy)-5H-pyrrolo[2,3-b]pyrazine-7-carboxylic acid ethylamide] |
| 0.32 | COc1cccc(CNC(=O)c2ccc(-c3cnc4[nH]cc(C(=O)N[C@@H](C)C(C)(C)C)c4n3)s2)c1 [Example I-206, 2-[5-(3-Methoxy-benzylcarbamoyl)-thiophen-2-yl]-5H-pyrrolo[2,3-b]pyrazine-7-carboxylic acid ((S)-1,2,2-trimethyl-propyl)-amide] |
| 7.46 | C[C@@H](NC(=O)c1c[nH]c2ncc(C3CC3)nc12)C(C)(C)C [Example I-62, 2-Cyclopropyl-5H-pyrrolo[2,3-b]pyrazine-7-carboxylic acid ((R)-1,2,2-trimethyl-propyl)-amide] |
| 54.3 | CC[C@H](NC(=O)c1c[nH]c2ncc(C3CC3)nc12)C(C)(C)O [Example I-29, 2-Cyclopropyl-5H-pyrrolo[2,3-b]pyrazine-7-carboxylic acid ((S)-1-ethyl-2-hydroxy-2-methyl-propyl)-amide] |
| 162 | CC(C)NC(=O)c1c[nH]c2ncc(Oc3ccc4c(c3)C(O)CC4)nc12 (stereo not shown) [Example I-293, 2-(3-Hydroxy-indan-5-yloxy)-5H-pyrrolo[2,3-b]pyrazine-7-carboxylic acid isopropylamide] |
| 3980 | Cc1ncccc1Oc1cnc2[nH]cc(C(=O)NC(C)C)c2n1 [Example I-280, 2-(2-Methyl-pyridin-3-yloxy)-5H-pyrrolo[2,3-b]pyrazine-7-carboxylic acid isopropylamide] |
| 0.46 | CC(NC(=O)c1ccc(-c2cnc3[nH]cc(C(=O)N[C@@H](C)C(C)(C)C)c3n2)s1)c1ccc(F)cc1 (stereo partly drawn) [Example I-195, 2-{5-[1-(4-Fluoro-phenyl)-ethylcarbamoyl]-thiophen-2-yl}-5H-pyrrolo[2,3-b]pyrazine-7-carboxylic acid ((S)-1,2,2-trimethyl-propyl)-amide] |
| 155 | CC(C)NC(=O)c1c[nH]c2ncc(Oc3ccc4c(c3)[C@H](NS(C)(=O)=O)CC4)nc12 [Example I-268, 2-((R)-3-Methanesulfonylamino-indan-5-yloxy)-5H-pyrrolo[2,3-b]pyrazine-7-carboxylic acid isopropylamide] |
| 0.32 | Cc1ccc(CNC(=O)c2ccc(-c3cnc4[nH]cc(C(=O)N[C@@H](C)C(C)(C)C)c4n3)s2)cc1 [Example I-184, 2-[5-(4-Methyl-benzylcarbamoyl)-thiophen-2-yl]-5H-pyrrolo[2,3-b]pyrazine-7-carboxylic acid ((S)-1,2,2-trimethyl-propyl)-amide] |
| 459 | CNC(=O)CNc1cnc2[nH]cc(C(=O)NCC(C)(C)CO)c2n1 [Example I-16] |
| 128 | CC[C@@H](CO)NC(=O)c1c[nH]c2ncc(C3CC3)nc12 [Example I-40, 2-Cyclopropyl-5H-pyrrolo[2,3-b]pyrazine-7-carboxylic acid ((S)-1-hydroxymethyl-propyl)-amide] |
| 810 | CCNC(=O)c1c[nH]c2ncc(Oc3cccc(OC)c3)nc12 [Example I-264, 2-(3-Methoxy-phenoxy)-5H-pyrrolo[2,3-b]pyrazine-7-carboxylic acid ethylamide] |
| 878 | CC(C)(O)[C@@H](NC(=O)c1c[nH]c2ncc(C3CC3)nc12)C1CCCCC1 [Example I-94, 2-Cyclopropyl-5H-pyrrolo[2,3-b]pyrazine-7-carboxylic acid ((S)-1-cyclohexyl-2-hydroxy-2-methyl-propyl)-amide] |
| 0.22 | C[C@H](CS(C)(=O)=O)NC(=O)c1ccc(-c2cnc3[nH]cc(C(=O)N[C@@H](C)C(C)(C)C)c3n2)s1 [Example I-211, 2-[5-((R)-2-Methanesulfonyl-1-methyl-ethylcarbamoyl)-thiophen-2-yl]-5H-pyrrolo[2,3-b]pyrazine-7-carboxylic acid ((S)-1,2,2-trimethyl-propyl)-amide] |
| 20.6 | N#CC[C@@H](NC(=O)c1c[nH]c2ncc(C3CC3)nc12)C1CC1 [Example I-135, 2-Cyclopropyl-5H-pyrrolo[2,3-b]pyrazine-7-carboxylic acid ((R)-2-cyano-1-cyclopropyl-ethyl)-amide] |
| 0.76 | C[C@H](NC(=O)c1c[nH]c2ncc(-c3ccc(C(=O)N(C)Cc4ccc(F)cc4)s3)nc12)C(C)(C)C [Example I-205, 2-{5-[(4-Fluoro-benzyl)-methyl-carbamoyl]-thiophen-2-yl}-5H-pyrrolo[2,3-b]pyrazine-7-carboxylic acid ((S)-1,2,2-trimethyl-propyl)-amide] |
| 22.9 | CC[C@H](C)NC(=O)c1c[nH]c2ncc(Oc3ccc4c(c3)[C@H](NC(C)=O)CC4)nc12 [Example I-296, 2-((R)-3-Acetylamino-indan-5-yloxy)-5H-pyrrolo[2,3-b]pyrazine-7-carboxylic acid ((S)-sec-butyl)-amide] |
| 0.5 | C[C@H](NC(=O)c1c[nH]c2ncc(-c3ccc(C(=O)NCc4ccccc4)s3)nc12)C(C)(C)C [Example I-226, 2-(5-Benzylcarbamoyl-thiophen-2-yl)-5H-pyrrolo[2,3-b]pyrazine-7-carboxylic acid ((S)-1,2,2-trimethyl-propyl)-amide] |
| 740 | CCNC(=O)c1c[nH]c2ncc(Oc3ccc4c(c3)[C@H](NS(C)(=O)=O)CC4)nc12 [Example I-270, 2-((R)-3-Methanesulfonylamino-indan-5-yloxy)-5H-pyrrolo[2,3-b]pyrazine-7-carboxylic acid ethylamide] |
| 15.2 | C[C@@H](NC(=O)c1c[nH]c2ncc(C3CC3)nc12)C1(O)CCCC1 [Example I-82, 2-Cyclopropyl-5H-pyrrolo[2,3-b]pyrazine-7-carboxylic acid [(R)-1-(1-hydroxy-cyclopentyl)-ethyl]-amide] |
